These results are taken from patent US9546201B2, “MUC-1 cytoplasmic domain peptides as inhibitors of cancer” (DANA-FARBER CANCER INSTITUTE, INC., priority 2008, dated 2017).

Where a SMILES comes first, the peptide text is derived from it. Where no end group is shown, it is not given here. [ ]: non-standard residue; d: D form.

Assay [1] has as its system multiple carcinoma cell lines. The assay is described as follows: Inventors' recent studies of MUC1 C-terminal peptides on carcinoma cell lines. Conditions: L-amino acid peptide. The class given is cell-based. The source says:
However, these MUC1-C-terminal peptides consists of L-amino acids. […] Consequently, they have generated an all-dextro form of the above described shorter MUC1 C-terminal peptide, in which the L-amino acids were changed to D-amino acids (GO-203). Moreover, to determine the minimum amino acid residues from the MUC1-C-terminal region that are required to retain the cell killing activity, they have also generated many different versions of GO-203 as described in FIG. 8.

The target of a further assay is T1, His-MUC1-CD (Homo sapiens, UniProt P15941).
T1 sequence (P15941 1184-1255): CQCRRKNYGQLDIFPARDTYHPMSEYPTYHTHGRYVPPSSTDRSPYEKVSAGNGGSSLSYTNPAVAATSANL
The assay is described as follows: BIAcore binding to immobilized His-MUC1-CD. Conditions: data not shown. As to the method:
FIGS. 1A-D. MUC1/CQC peptide blocks MUC1 oligomerization. (FIG. 1A) Schematic representation of the MUC1-C subunit and the 72-amino acid sequence of MUC1-CD (SEQ ID NO: 1) are shown. The N-terminal 15 amino acids (shaded sequence; SEQ ID NO: 3) MUC1/CQC (SEQ ID NO: 63) and mutated MUC1/AQA (SEQ ID NO: 60) peptides were synthesized with the poly-dArg transduction domain. (FIG. 1B) His-MUC1-CD (1.4 mg/ml) was immobilized on a sensor chip in a BIAcore. MUC1/CQC was injected over the chip at 10 μM. Raw binding data were analyzed by BIAevaluation software version 3.0 and fit to a 1:1 Languir binding model. (FIG. 1C) Purified His-MUC1-CD (1.5 mg/ml) was incubated with PBS, 200 μM MUC1/CQC or 200 μM MUC1/AQA for 1 h at room temperature. The proteins were separated in a non-reducing SDS-polyacrylamide gel and analyzed by immunoblotting with anti-MUC1-C. (FIG. 1D) 293 cells were transiently transfected to express an empty vector or GFP-MUC1-CD and Flag-MUC1-CD. At 48 h after transfection, the cells were treated with 5 μM MUC1/CQC or MUC1/AQA for 3 d. The cells were then harvested for immunoblotting with anti-MUC1-C (left panel). […]
The MUC1 cytoplasmic domain (MUC1-CD) contains a CQC motif that is necessary for the formation of oligomers and nuclear localization (Leng et al., 2007). […] Purified His-tagged MUC1-CD forms oligomers as detected by electrophoresis in polyacrylamide gels (FIG. 1C). […]

Turning to `CC[C@H](C)[C@H](NC(=O)[C@H](CC(=O)O)NC(=O)[C@H](CC(C)C)NC(=O)[C@H](CCC(N)=O)NC(=O)CNC(=O)[C@H](Cc1ccc(O)cc1)NC(=O)[C@H](CC(N)=O)NC(=O)[C@H](CCCCN)NC(=O)[C@H](CCCNC(=N)N)NC(=O)[C@H](CCCNC(=N)N)NC(=O)[C@H](CS)NC(=O)[C@H](CCC(N)=O)NC(=O)[C@H](CS)NC(=O)[C@@H](CCCNC(=N)N)NC(=O)[C@@H](CCCNC(=N)N)NC(=O)[C@@H](CCCNC(=N)N)NC(=O)[C@@H](CCCNC(=N)N)NC(=O)[C@@H](CCCNC(=N)N)NC(=O)[C@@H](CCCNC(=N)N)NC(=O)[C@@H](CCCNC(=N)N)NC(=O)[C@@H](CCCNC(=N)N)NC(=O)[C@H](N)CCCNC(=N)N)C(=O)N[C@@H](Cc1ccccc1)C(=O)N1CCC[C@H]1C(=O)O` [MUC1/CQC] (H-[dR][dR][dR][dR][dR][dR][dR][dR][dR]CQCRRKNYGQLDIFP-OH; N-terminus and C-terminus assumed), the “growth of carcinoma cell lines” value in assay [1] is listed as “active in inhibiting growth of multiple carcinoma cell lines”.
Regarding “MUC1/AQA: control peptide in which the CQC motif was altered to AQA, with poly-dArg transduction domain; SEQ ID NO: 60 ([dR][dR][dR][dR][dR][dR][dR][dR][dR]AQARRKNYGQLDIFP) [reference compound]”, in the assay with His-MUC1-CD, the “binding to His-MUC1-CD” value is on record as “no apparent binding”.
